Measured values from patent publication US20250304623A1, “PEPTIDES FOR INTRACELLULAR DELIVERY” (UNIVERSIDADE DE SANTIAGO DE COMPOSTELA, priority 2022, published 2025).
Starred links: 1 amine or outer side, 2 acyl side, 3 side chain; linkers in the order of their positions; H or OH if unused. Residues, ends and D or L forms follow the SMILES beside them. Groups on a side chain read outwards from the residue. *: point of attachment. Glutaryl = O=C(CCCC(=O)[*:2])[*:1]; NHNH2 = NN*

Assays:
Assay type in all cases: cell-based
A549 cells = test: RLuc pDNA delivery, robotic library screening, A549
Experimental: Cells were seeded in a 96 well plate the day before the experiment at a concentration of 60,000 cell/mL (100 μL/w) in DMEM+10% FBS+1% Gln-Abt. For robotic library screening, the delivery of pDNA encoding for the expression of Renilla luciferase gene (RLuc, pRL-CMV (Promega, #E2261)) in six different cell lines was performed. Amphihilic molecule stock solutions in DMSO were diluted with DMEM and freshly mixed with pDNA stock solutions in DMEM prior to transfection experiments, to afford several complexes at different amphiphile concentration (2-10 μM) while maintaining a constant final pDNA concentration of 2 ng/μL. The mixture was shaken for 30 min at room temperature before the addition to the cells. The cell medium was aspirated, and cells were washed twice with PBS. Finally, 50 μL of the complex's solution were added to the cells and incubated for 4 h. After the incubation, the medium was replaced by 100 μL of fresh DMEM supplemented with 10% FBS. 72 hours after transfection the DMEM was removed, cells were washed once with HBSS and 90 μL of HBSS were added to each well. Cells were incubated at 37° C. for 30 minutes. Then basal luminescence levels were read in a plate reader. Immediately, 10 μL of coelenterazine h in HBSS were added to each well (5 μM final concentration) and cells were incubated at 37° C. for 10 minutes. Finally, the total luminescence measurement of the plates was performed. Amphiphile transfection efficiency was compared and normalized to Lipofectamine® 2000 efficiency (value of 1 in Tables 1-5 and 7; bold numbers). All experiments were done in triplicate.
(§1) Tables 1-7: RLuc (pDNA) or EGFP (mRNA) expression levels were normalized to Lipofectamine reagents (value=1) and expressed as fold-times signal increase. In the case of siRNA, the siRNA treated cells fluorescence was compared with siMOCK control fluorescence, while Cas9-RNP mediated knockout was measured against the fluorescence of untreated cells. In both siRNA and Cas9-RNP, values are expressed as % fluorescence reduction. Amphiphile concentration was 5 μM in all cases. All experiments were performed in triplicate.
Tables 8-13 show the mean (triplicates) luminescent intensity (RLU) measured after the transfection of RLuc pDNA by different amphiphiles at different concentrations in a variety of cell lines. Background luminescence values, accounted by untransfected control cells, were subtracted for processing.

[1] = system: Hek293 cells expressing EGFP; test: Cas9-RNP delivery against EGFP (gene editing, plate reader), Hek293
Experimental: (§2) To generate an EGFP expressing HeLa cell line, HeLa cells were transfected with EGFP pDNA (pEGFP-C1, Clontech) and stable transfectants were selected with 400 μg/mL of G-418 (Millipore). Green clones were selected by epifluorescence microscopy and tested for EGFP expression stability through several passages. […] All other EGFP-expressing cell lines were obtained in a similar way from parent non-EGFP-expressing cell lines.
Cells expressing EGFP were seeded in a 96 well plate the day before the experiment at a concentration of 50,000 cell/mL (100 μL/w) in DMEM+10% FBS+1% Gln-Abt. For robotic library screening, the delivery of Cas9-RNP against EGFP (RNP designed to knock-out the gene encoding for the enhanced green fluorescent protein (EGFP)) was performed. For RNP assembly, 9.2 μL of crRNA and 9.2 μL of tracrRNA were mixed in 211.6 μL of Nuclease-Free Duplex Buffer (IDT), incubated for 5 min at 95° C. and slowly cooled at rt (see I. Lostalé-Seijo, et al. Peptide/Cas9 nanostructures for ribonucleoprotein cell membrane transport and gene edition, Chem. Sci., 2017). Cas9 protein was dissolved in DMEM at a final concentration of 4 μM and equal volumes of the RNA complex and Cas9 were mixed and incubated for 5 min at rt. 75 μL of the corresponding amphiphile concentrations were added to 5 μL of RNP at 2 μM. The mixture was shaken for 30 min at room temperature before the addition to the cells. The cell medium was aspirated, and cells were washed twice with PBS. Cells were covered with 30 μL of DMEM and 20 μL of the RNP/amphiphile complexes were added to the cells (final peptide concentrations=2.5, 5 and 10 μM; final Cas9-RNP concentration=50 nM) and incubated for 4 h. After the incubation, the medium was replaced by 100 μL of fresh DMEM supplemented with 10% FBS. The total EGFP fluorescence was quantified after 72 h in a plate reader (FIG. 2, Table 1 (right) and Table 6). All experiments were done in triplicate. […]
(§3) Tables 26-31 show the mean (triplicates) percentage of gene editing, accounted by GFP fluorescence intensity decrease (% of reduction), measured after the transfection of Cas9-RNP by different amphiphiles at different concentrations in a variety of cell lines. Background values, accounted by untreated control cells, were subtracted for processing.

[2] = system: Hek293 cells expressing EGFP; test: EGFP-targeting siRNA delivery (GFP silencing vs siMOCK), Hek293
Experimental: as §2
Cells expressing EGFP were seeded in a 96 well plate the day before the experiment at a concentration of 50,000 cell/mL (100 μL/w) in DMEM+10% FBS+1% Gln-Abt. For robotic library screening, the delivery of an EGFP-targeting siRNA (EGFP: enhanced green fluorescent protein, Ambion® Silencer® GFP Positive Control siRNA (siGFP) (AM4626)) in six different cell lines expressing EGFP was performed. […] The mixture was shaken for 30 min at room temperature (rt) before the addition to the cells. The cell medium was aspirated, and cells were washed twice with PBS. Finally, 50 μL of the solution of siRNA/amphiphile complexes were added to the cells and incubated for 4 h. After transfection, the medium was replaced by 100 μL of fresh DMEM supplemented with 10% FBS. The fluorescence knockdown was quantified after 72 h in a plate reader, by comparison with cells transfected with a non-targeting siRNA control (siMOCK, Silencer™ Negative Control No. 1 siRNA (siMOCK) (AM4611)). EGFP knockdown was compared with Lipofectamine® RNAiMAX silencing efficiency (30-60% depending on cell line, defined with a numeric value in the below tables). All experiments were done in triplicate.
as §1
as §3, with “20-25” for “26-31”, “GFP-silencing,” for “gene editing,”, “by” for “by GFP”, “relative to a non-targeting siRNA (siMOCK) control,” for “(% of reduction),”, “siRNA” for “Cas9-RNP”

Molecule	mean luminescent intensity (RLuc pDNA) (A549 cells; Myristoleyl, 5 μM)	mean luminescent intensity (RLuc pDNA) (A549 cells; Myristoleyl, 10 μM)	mean luminescent intensity (RLuc pDNA) (A549 cells; Oleyl, 5 μM)	mean luminescent intensity (RLuc pDNA) (A549 cells; Palmitoleyl, 5 μM)	mean luminescent intensity (RLuc pDNA) (A549 cells; Palmitoleyl, 10 μM)	mean luminescent intensity (RLuc pDNA) (A549 cells; Palmitoleyl, 15 μM)	mean luminescent intensity (RLuc pDNA) (A549 cells; Petroselinyl, 5 μM)	mean luminescent intensity (RLuc pDNA) (A549 cells; Petroselinyl, 15 μM)	percentage of gene editing, GFP fluorescence intensity decrease (% of reduction) ([1]; Myristoleyl, 5 μM)	percentage of gene editing, GFP fluorescence intensity decrease (% of reduction) ([1]; Oleyl, 10 μM)	percentage of gene editing, GFP fluorescence intensity decrease (% of reduction) ([1]; Oleyl, 15 μM)	percentage of gene editing, GFP fluorescence intensity decrease (% of reduction) ([1]; Palmitoleyl, 5 μM)	percentage of gene editing, GFP fluorescence intensity decrease (% of reduction) ([1]; Palmitoleyl, 10 μM)	percentage of gene editing, GFP fluorescence intensity decrease (% of reduction) ([1]; Palmitoleyl, 15 μM)	percentage of gene editing, GFP fluorescence intensity decrease (% of reduction) ([1]; Petroselinyl, 5 μM)	percentage of GFP-silencing relative to siMOCK ([2]; Dodecanal, 15 μM)	percentage of GFP-silencing relative to siMOCK ([2]; Myristoleyl, 5 μM)	percentage of gene editing, GFP fluorescence intensity decrease (% of reduction) ([1]; Dodecanal, 5 μM)	percentage of gene editing, GFP fluorescence intensity decrease (% of reduction) ([1]; Petroselinyl, 10 μM)	percentage of gene editing, GFP fluorescence intensity decrease (% of reduction) ([1]; Petroselinyl, 15 μM)	also measured
CC(=O)N[C@@H](CCCNC(=N)N)C(=O)N[C@@H](CCCCNC(=O)CCCC(=O)NN)C(=O)N[C@@H](Cc1c[nH]cn1)C(=O)N[C@@H](CCCNC(=N)N)C(=O)N[C@@H](CCCCNC(=O)CCCC(=O)NN)C(=O)N[C@@H](CCCCNC(=O)CCCC(=O)NN)C(=O)N[C@@H](Cc1c[nH]cn1)C(N)=O [7.3(L-H), Ac-RK*HRK*K*H-NH2] (Ac-RK([Glutaryl-NHNH2])HRK([Glutaryl-NHNH2])K([Glutaryl-NHNH2])H-NH2)	184442 RLU	147873 RLU	4031 RLU	109148 RLU	140079 RLU	105643 RLU	94011 RLU	6719 RLU	−6%	6%	0%	23%	−5%	−2%	1%	14%	−3%				mean luminescent intensity (RLuc pDNA) (A549 cells; Myristoleyl, 15 μM): 31551 RLU; mean luminescent intensity (RLuc pDNA) (A549 cells; Petroselinyl, 10 μM): 139603 RLU; pDNA delivery, times better than Lipofectamine 2000 (A549 cells; palmitoleyl or petroselinyl aldehydes): 30 times; percentage of gene editing, GFP fluorescence intensity decrease (% of reduction) ([1]; Oleyl, 5 μM): −5%; percentage of GFP-silencing relative to siMOCK ([2]; Palmitoleyl, 10 μM): 6%
Ac-RHLK*RHK*RRLK*RH-NH2 (Ac-RHLKRHKRRLKRH-NH2; not fully specified (residues 4, 7, 11); printed as Ac-RHLK*RHK*RRLK*RH-NH2; also: linker on K* not given here) [13(3His)]	37751 RLU	2256 RLU	25257 RLU	18924 RLU	2866 RLU	2990 RLU	5271 RLU	8545 RLU	−13%			−16%		−47%	21%			−4%	4%	−13%	mean luminescent intensity (RLuc pDNA) (A549 cells; Dodecanal, 15 μM): 1261 RLU; percentage of GFP-silencing relative to siMOCK ([2]; Dodecanal, 10 μM): −11%; percentage of GFP-silencing relative to siMOCK ([2]; Myristoleyl, 15 μM): 11%; percentage of GFP-silencing relative to siMOCK ([2]; Oleyl, 10 μM): 2%
Ac-RHLK*RLK*RRLK*RL-NH2 (Ac-RHLKRLKRRLKRL-NH2; not fully specified (residues 4, 7, 11); printed as Ac-RHLK*RLK*RRLK*RL-NH2; also: linker on K* not given here) [13(Arg-His)]	8162 RLU		14340 RLU	8561 RLU		3763 RLU		9721 RLU		−8%	−8%	1%	5%	−26%	8%	44%		21%	−19%	−44%	mean luminescent intensity (RLuc pDNA) (A549 cells; Dodecanal, 5 μM): 6594 RLU; percentage of gene editing, GFP fluorescence intensity decrease (% of reduction) ([1]; Myristoleyl, 15 μM): −75%; percentage of GFP-silencing relative to siMOCK ([2]; Dodecanal, 5 μM): 24%; percentage of GFP-silencing relative to siMOCK ([2]; Dodecanal, 10 μM): 39%; percentage of GFP-silencing relative to siMOCK ([2]; Myristoleyl, 10 μM): 48%; percentage of GFP-silencing relative to siMOCK ([2]; Myristoleyl, 15 μM): 25%; percentage of GFP-silencing relative to siMOCK ([2]; Oleyl, 10 μM): 39%; percentage of GFP-silencing relative to siMOCK ([2]; Oleyl, 15 μM): 47%; percentage of GFP-silencing relative to siMOCK ([2]; Petroselinyl, 5 μM): 30%; percentage of GFP-silencing relative to siMOCK ([2]; Petroselinyl, 10 μM): 5%; percentage of GFP-silencing relative to siMOCK ([2]; Petroselinyl, 15 μM): 18%
Ac-RK*LRK*K*L-NH2 (Ac-RK(NHNH2)LRK(NHNH2)K(NHNH2)L-NH2; not fully specified; printed as Ac-RK*LRK*K*L-NH2; also: K*2,K*5,K*6: native or modified lysine (ε-amide to a linker)) [Peptide 7.3]					3679 RLU		4314 RLU		−20%	−34%		23%	−1%	3%	29%		29%	−11%	34%	23%	mean luminescent intensity (RLuc pDNA) (A549 cells; Dodecanal, 5 μM): 483 RLU; mean luminescent intensity (RLuc pDNA) (A549 cells; Dodecanal, 15 μM): 777 RLU; percentage of gene editing, GFP fluorescence intensity decrease (% of reduction) ([1]; Dodecanal, 15 μM): −15%; percentage of GFP-silencing relative to siMOCK ([2]; Oleyl, 5 μM): 26%; percentage of GFP-silencing relative to siMOCK ([2]; Palmitoleyl, 15 μM): 19%; percentage of GFP-silencing relative to siMOCK ([2]; Petroselinyl, 15 μM): 3%
